Results on 4 compounds are retold here after patent US20250332159A1, “REACTIVE OXYGEN SPECIES MODULATION THROUGH BINDING OF LIGANDS AT THE NQ-BINDING SITE OF THE RESPIRATORY COMPLEX III” (University of Health Sciences & Pharmacy in St. Louis, priority 2024, published 2025).

Common to all, as to type: cell-based, human
Data set [1] concerns MCF7 cells. The data set can be described thus: Total cellular ROS measurement (CellRox Green). The settings on record: 25 μM, 6-8 hours. The protocol:
(§1) The MCF7 breast cancer cell line (ATCC, HTB-22) was purchased from American Type Culture Collection (ATCC, Manassas, VA) and propagated in Eagle's minimum essential medium (EMEM, ATCC) supplemented with 10% FBS (Thermo Scientific), 1% L-glutamine and 1% penicillin/streptomycin (ATCC) in a humidified incubator at 37° C. and 5% CO2. Cells were harvested and seeded into a 96-well black plate at a cell density of 25,000 cells/well and left overnight to adhere. Afterward, cells were treated with 25 μM of the 14 purchased ligands from MolPort (Riga, Latvia), positive control (i.e., doxorubicin), and negative control (i.e., DMSO) and left in the incubator for 6-8 hours. For the Qo and Qi inhibition experiments, 25 μM of myxothiazol or antimycin A (Sigma-Aldrich), respectively were also incubated. Negative controls for the inhibition experiments were composed of DMSO and either 25 μM of myxothiazol or antimycin A. Afterward, cells were washed and stained for 30 minutes at 37° C. and 5% CO2 in the dark using the CellRox Green (Invitrogen, USA) or the MitoSOX Red Assay Kit (Invitrogen, USA). Afterward, cells were washed, and total cellular ROS or mitochondrial superoxide anion levels were measured using the Synergy Biotek UV/Vis/fluorescence microplate reader with excitation/emission wavelengths of 490/525 nm or 396/610 nm, respectively. Nuclei were labeled using NucBlue Live ReadyProbes Reagent (Hoechst 33342). All experiments were performed in at least triplicate and repeated for at least three independent trials.

Data set [2] concerns MCF7 cells. Nature of the data set: Qo and Qi inhibition experiments: mitochondrial superoxide anion with myxothiazol or antimycin A. The settings on record: for mitochondrial superoxide anion level, ligand with antimycin (ANT): 25 μM ligand + 25 μM ANT (Qi site inhibitor); for mitochondrial superoxide anion level, ligand with myxothiazol (MYX): 25 μM ligand + 25 μM MYX (Qo site inhibitor). The protocol: as §1

Data set [3] has as its system MCF7 cells. The data set can be described thus: MTS cytotoxicity assay. The settings on record: MCF7 cell line, 48 hours. An excerpt:
MCF7 cells were harvested and seeded at a cell density of 5,000 cells/well into a 96-well white plate and left overnight to adhere. […] Then, cells were washed and assayed for cytotoxicity using CellTiter 96® AQueous One Solution Cell Proliferation Assay kit (MTS) (Promega, USA), which is a colorimetric assay containing colorless tetrazolium compound that is bio-reduced by NADPH or NADH produced by dehydrogenase enzymes in metabolically active cells into a colored formazan product that can be measured at wavelength 490 nm using the Synergy Biotek plate reader. Sequential treatment was performed by incubating the overnight attached MCF7 cells with 25 μM of MH-200102 for 24 hours. Then, the cells were washed once and incubated with different concentrations of MH-101015 for another 24 hours. Then, the cells were assayed for cytotoxicity, as mentioned above.
Background: Tetrazolium assays rely on reduction of a dye to a coloured formazan, in cell work by metabolically active cells.

Structures are written as SMILES.

`O=C(O)c1cccc2ncccc12` [MH-01015]: the “total ROS level compared to negative control (DMSO)” value with MCF7 cells [1] was “total ROS down-regulating activity”. Further, in the data set on MCF7 cells [2], the “mitochondrial superoxide anion level, ligand with antimycin (ANT)” value is listed as “ANT blocks any ROS down-regulating activity” and the “mitochondrial superoxide anion level, ligand with myxothiazol (MYX)” value (“mitochondrial superoxide anion level … (MYX)” for short) is recorded as “MYX blocks any ROS down-modulating activity”.

With `Cc1cc(I)ccc1NC(=O)c1ccc(Br)c(N)c1` [MH-04504], the “total ROS level compared to negative control (DMSO)” value in the data set with MCF7 cells [1] is recorded as “modest total ROS upregulating activity”. Further, the “mitochondrial superoxide anion level … (MYX)” value with MCF7 cells [2] is “MYX blocks the ROS up-modulating activity”. Moreover, in the data set with MCF7 cells [3] (0-100 μM), the “cytotoxic activity” value is on record as “modest cytotoxic activity”.

Take `COCc1cnc2n1CCN(C(=O)c1cscn1)[C@H]2C` [MH-131013]: the “total ROS level compared to negative control (DMSO)” value in the data set on MCF7 cells [1] is “total ROS down-regulating activity”. For the same compound, in the data set with MCF7 cells [2], the “mitochondrial superoxide anion level, ligand with antimycin (ANT)” value is recorded as “ANT blocks any ROS down-regulating activity” and the “mitochondrial superoxide anion level … (MYX)” value is “MYX blocks any ROS down-modulating activity”.

For orientation: IC50 means the concentration that inhibits the measured activity by half. Take `O=C(CSc1ccccc1)NCCCn1ccnc1` [MH-200102]: the “total ROS level compared to negative control (DMSO)” value in the data set with MCF7 cells [1] was “twofold”. For the same compound, the “mitochondrial superoxide anion level … (MYX)” value in the data set on MCF7 cells [2] is on record as “MYX blocks the ROS up-modulating activity”. The IC50 in the data set with MCF7 cells [3] (Homo sapiens, single treatment, read-out: cytotoxic activity IC50) came out at 14.6 µM.
